In paper PMC5358776, “Insight into the mechanism of action of temporin-SHa, a new broad-spectrum antiparasitic and antibacterial agent” (PLoS ONE, 2017):
Read-outs that look alike come from different tables or passages of the source. Where no end group is shown, it is not given here.

Tests used:
[1] = test system: Human THP-1-derived macrophages; experiment: Cytotoxicity, Trypan blue staining; settings: 1–100 μM, mean of 3 independent experiments, six replicates
Method: (§1) Hemolytic assays were also performed using erythrocytes obtained from fresh blood samples of Wistar male rats (Charles River Laboratories, France). The hemolytic activity was measured by incubating the peptide (1–200 μM, final concentrations) with erythrocytes (2 x 10^7 cells) in PBS (100 μl) for 1 h at 37°C, as previously described [23]. A parallel incubation in the presence of 0.1% (v/v) Triton-X100 was carried out to determine the absorbance associated with 100% hemolysis. […] For THP-1-derived macrophages, viability was determined by Trypan blue staining after incubation with peptide (1–100 μM, final concentrations). LC50 (average concentration of the peptide producing 50% cell lysis) and IC50 values were determined with GraphPad Prism 6.0 software and correspond to the mean obtained from three independent experiments carried out with three (erythrocytes, THP-1 monocytes, HepG2 and HFF cells) or six replicates (THP-1-derived macrophages).
(§2) IC50 or LC50 values were determined for the different human cells mentioned above in the cytotoxicity assays.

[2] = test system: S. pyogenes ATCC 19615; settings: MH broth, 10^6 cfu/ml; mean of 3 independent experiments in triplicate
Method: (§3) Listeria ivanovii Li4pVS2 (kindly provided by Jean-Marc Berjeaud, Université de Poitiers, France), and Streptococcus pyogenes ATCC 19615 (ATCC) were cultured in brain heart infusion (BHI, Sigma-Aldrich) medium under the same conditions.
(§4) Activity against bacteria and yeasts was assessed with a liquid growth inhibition assay performed in 96-well microtitration plates, according to a previously described protocol [14], using mid-logarithmic phase cultures diluted in Mueller-Hinton (MH, Dominique Dutscher) broth (LB broth for E. faecalis strain and YPD medium for yeasts/fungi) to an A630 value of 0.01 (10^6 cfu/ml) and 2-fold serial dilutions of synthetic temporin (200–1 μM, final concentrations). The minimal inhibitory concentration (MIC) was determined as the mean value of three independent experiments, each performed in triplicate with negative (H2O) and positive (0.7% formaldehyde) controls.

[3] = test system: promastigotes of several species of Leishmania; settings: read-out: IC50 (range over Leishmania species); promastigotes of L. infantum, L. major, L. amazonensis, L. braziliensis
Method: (§5) Antiparasitic activity was evaluated against trypanosomatids, such as Leishmania and Trypanosoma. Antileishmanial activity was determined either by a luminescence-based assay (L. infantum, L. major and L. braziliensis) or by cell counting (FACSCalibur flow cytometer, Becton-Dickinson Biosciences, Woburn, MA, USA) after staining with propidium iodide (L. tropica and L. amazonensis), as previously described [23], using promastigotes or axenic amastigotes (1.25 x 10^6 parasites/ml) in mid-log phase and 5-fold serial dilutions of synthetic temporin (50–3.1 μM, final concentrations). Antitrypanosomal activity against T. brucei gambiense and T. cruzi was assessed by cell counting, similar to the L. tropica and L. amazonensis analysis, after incubation of the parasites (96 h for T. brucei gambiense and 120 h for T. cruzi) with the synthetic temporin, as previously described [23]. The half maximal inhibitory concentration (IC50) value was determined with GraphPad Prism 6.0 software (GraphPad Software, La Jolla, CA, USA) using a sigmoidal dose response (variable slope) curve fitting equation. The results are expressed as the means of three independent experiments performed in triplicate (luminescence-based assays) or in duplicate (cell counting-based assays).

[4] = test system: C. albicans ATCC 90028; settings: YPD medium; mean of 3 independent experiments in triplicate
Method: (§6) Candida albicans ATCC 90028, Candida parapsilosis ATCC 22019 (ATCC), and Saccharomyces cerevisiae (laboratory collection) were cultured in yeast peptone dextrose (YPD, Sigma-Aldrich) medium at 30°C.
(§7) The minimal inhibitory concentration (MIC) was determined as the mean value of three independent experiments, each performed in triplicate with negative (H2O) and positive (0.7% formaldehyde) controls.

[5] = test system: L. infantum promastigotes
Method: (§8) L. infantum axenic amastigotes were differentiated from promastigotes in MAA medium (supplemented with 20% FCS) and were grown at 37°C in 5% CO2 [23].
(§9) Antiparasitic activity was evaluated against trypanosomatids, such as Leishmania and Trypanosoma. Antileishmanial activity was determined either by a luminescence-based assay (L. infantum, L. major and L. braziliensis) or by cell counting (FACSCalibur flow cytometer, Becton-Dickinson Biosciences, Woburn, MA, USA) after staining with propidium iodide (L. tropica and L. amazonensis), as previously described [23], using promastigotes or axenic amastigotes (1.25 x 10^6 parasites/ml) in mid-log phase and 5-fold serial dilutions of synthetic temporin (50–3.1 μM, final concentrations). […] The half maximal inhibitory concentration (IC50) value was determined with GraphPad Prism 6.0 software (GraphPad Software, La Jolla, CA, USA) using a sigmoidal dose response (variable slope) curve fitting equation. The results are expressed as the means of three independent experiments performed in triplicate (luminescence-based assays) or in duplicate (cell counting-based assays).

[6] = test system: E. coli ML-35p; experiment: Time-kill assay; type: cell-based, Escherichia coli; settings: 120-min exposure, 12 μM, PBS, 10^6 cfu/ml
Method: Time-kill assays were performed on bacteria and Leishmania infantum promastigotes. For bacteria (E. coli ML-35p and S. aureus ST1065, 10^6 cfu/ml), assays were performed as previously described, with final temporin concentrations of 6 and 12 μM. For parasite time-kill assays, Leishmania infantum promastigotes harvested in exponential phase were washed twice (1,000 x g, 10 min) with Hank's balanced salt solution (HBSS) supplemented with 20 mM glucose and then suspended in the same buffer to a density of 2.5 x 10^6 cells/ml. This suspension (800 μl) was incubated with 200 μl of a 5X temporin solution, and parasitic death was evaluated at different times by counting parasites (FACSCalibur) after staining with 1 μg/ml propidium iodide (Molecular Probes). Negative controls were assayed without peptides. Three experiments were carried out in triplicate for bacteria or in duplicate for parasites.

[7] = test system: A. baumannii ATCC 19606; settings: MH broth, 10^6 cfu/ml; mean of 3 independent experiments in triplicate
Method: as §4

[8] = test system: Human erythrocytes; experiment: Hemolytic assay; settings: 1 h, 37°C, PBS, 2 x 10^7 cells; mean of 3 independent experiments in triplicate
Method: as §1, §2

[9] = test system: E. coli ML-35p; settings: MH broth, 10^6 cfu/ml; mean of 3 independent experiments in triplicate
Method: as §3, §4

[10] = test system: S. aureus ATCC 25923; settings: MH broth, 10^6 cfu/ml; mean of 3 independent experiments in triplicate
Method: as §4

[11] = test system: L. ivanovii; settings: MH broth, 10^6 cfu/ml; mean of 3 independent experiments in triplicate
Method: as §3, §4

[12] = test system: Human THP-1 monocytes; settings: MTT, 72 h, 37°C, 1–60 μM; mean of 3 independent experiments in triplicate
[13] = test system: Yeasts/fungi; settings: 3 yeast/fungal strains of Table 3
[14] = test system: E. faecalis ATCC 29212; settings: LB broth, 10^6 cfu/ml; mean of 3 independent experiments in triplicate
Method: as §3, §4

[15] = test system: E. coli ATCC 25922; settings: MH broth, 10^6 cfu/ml; mean of 3 independent experiments in triplicate
Method: as §3, §4

[16] = test system: C. parapsilosis ATCC 22019; settings: YPD medium; mean of 3 independent experiments in triplicate
Method: as §6, §7

[17] = test system: Gram-negative bacteria; settings: 6 Gram-negative strains of Table 3
[18] = test system: P. aeruginosa ATCC 27853; settings: MH broth, 10^6 cfu/ml; mean of 3 independent experiments in triplicate
Method: as §3, §4

[19] = test system: S. aureus ATCC 43300; settings: strain resistant to methicillin and oxacillin; MH broth, 10^6 cfu/ml; mean of 3 independent experiments in triplicate
Method: as §3, §4

[20] = test system: S. aureus ATCC BAA-44; settings: multidrug-resistant strain; MH broth, 10^6 cfu/ml; mean of 3 independent experiments in triplicate
[21] = test system: L. amazonensis promastigotes; settings: cell counting; mean of 3 independent experiments in duplicate
Method: as §8, §9

[22] = test system: S. enterica (serotype Enteritidis); settings: MH broth, 10^6 cfu/ml; mean of 3 independent experiments in triplicate
Method: as §4

[23] = test system: L. infantum (intramacrophagic) amastigotes in THP-1-derived macrophages; settings: infected THP-1-derived macrophages, 4 days; mean of 2 experiments with six replicates
Method: Leishmania infantum (strain MHOM/MA/67/ITMAP-263), Leishmania major (strain MHOM/SU/73/5-ASKH), Leishmania tropica (strain MHOM/SU/74/SAFK27), Leishmania amazonensis (strain MHOM/BR/73/M2269), and Leishmania braziliensis (strain MHOM/BR/75/M2904) promastigotes (kindly provided by Francine Pratlong, Centre National de Référence des Leishmania, Montpellier, France) were cultured at 26°C in SDM-79 medium supplemented with 10% fetal calf serum (FCS, Gibco) [23]. […] L. infantum-infected human macrophages were obtained from human THP-1 monocytes, as previously described [23, 78].
Intramacrophagic leishmanicidal activity of the peptides was assessed by incubating L. infantum-infected human macrophages with 2-fold serial dilutions of peptide (50–2.5 μM, final concentrations) for 4 days, as previously described [23]. THP-1-derived macrophages were infected with promastigotes from late log phase at a density of 5 x 10^5 cells/well (ratio 10:1) in RPMI medium for 24 h at 37°C with 5% CO2. […] The results are expressed as the means of two experiments performed with six replicates.

[24] = test system: L. braziliensis promastigotes; settings: mean of 3 independent experiments in triplicate
Method: as §8, §9

[25] = test system: L. major promastigotes; settings: mean of 3 independent experiments in triplicate
Method: as §8, §9

[26] = test system: T. cruzi epimastigotes; settings: 120 h incubation, cell counting; mean of 3 independent experiments in duplicate
Method: as §5

[27] = test system: Human fibroblasts (HFF); settings: MTT, 72 h, 37°C, 1–100 μM; mean of 3 independent experiments in triplicate
[28] = test system: Rat erythrocytes; settings: 1 h, 37°C, PBS, 2 x 10^7 cells; mean of 3 independent experiments in triplicate
Method: as §1, §2

[29] = test system: S. cerevisiae; settings: YPD medium; mean of 3 independent experiments in triplicate
Method: as §6, §7

[30] = test system: L. infantum (antimony resistant) promastigotes; settings: antimony-resistant parasites
Method: as §5

[31] = test system: T. brucei gambiense; settings: 96 h incubation, cell counting; mean of 3 independent experiments in duplicate
Method: as §5

[32] = test system: K. pneumoniae ATCC 13883; settings: MH broth, 10^6 cfu/ml; mean of 3 independent experiments in triplicate
Method: as §4

[33] = test system: S. aureus ST1065; settings: MH broth, 10^6 cfu/ml; mean of 3 independent experiments in triplicate
Method: as §4

[34] = test system: L. infantum (axenic) amastigotes; settings: axenic amastigotes
Method: as §8, §9

[35] = test system: Human HepG2; settings: MTT, 72 h, 37°C, 50–600 μM; mean of 3 independent experiments in triplicate
[36] = test system: L. infantum promastigotes; settings: 3 μM, at 180 min, HBSS
[37] = test system: Gram-positive bacteria; settings: 7 Gram-positive strains of Table 3

Q: Which LC50 [1] does the source give for FLSGIVGMLGKLF-NH2 [SHa, temporin-SHa] here?
A: 60 µM

Q: What about the MIC [2] of the same substance?
A: 6 µM

Q: What about the IC50 [3] of the same substance?
A: 7 to 18 µM

Q: And the MIC [4]?
A: 25 µM

Q: And the IC50 ([5]; medium with serum, mean of 3 independent experiments in triplicate)?
A: 18 µM

Q: And the IC50 ([5]; serum-free medium (values in parentheses))?
A: 8 µM

Q: And the killing [6]?
A: approximately 93%

Q: What about the MIC [7] of the same substance?
A: 6 µM

Q: What about the LC50 [8] of the same substance?
A: 25 µM

Q: What about the MIC [9] of the same substance?
A: 10 µM

Q: What about the MIC [10] of the same substance?
A: 3 µM

Q: And the MIC [11]?
A: 6 µM

Q: What about the IC50 [12] of the same substance?
A: > 60 µM

Q: And the “MICGM (geometric mean of the MIC values)” value [13]?
A: 31.1 µM

Q: What about the MIC [14] of the same substance?
A: 12 µM

Q: And the MIC [15]?
A: 10 µM

Q: And the MIC [16]?
A: 100 µM

Q: What about the “MICGM (geometric mean of the MIC values)” value [17] of the same substance?
A: 14.4 µM

Q: And the MIC [18]?
A: 50 µM

Q: What about the MIC [19] of the same substance?
A: 6 µM

Q: And the MIC [20]?
A: 6 µM

Q: And the IC50 [21]?
A: 13 µM

Q: And the MIC [22]?
A: 25 µM

Q: What about the IC50 [23] of the same substance?
A: 9 µM

Q: And the IC50 [24]?
A: 7 µM

Q: What about the IC50 [25] of the same substance?
A: 13 µM

Q: And the IC50 [26]?
A: 17 µM

Q: And the IC50 [27]?
A: > 100 µM

Q: What about the LC50 [28] of the same substance?
A: 25 µM

Q: And the MIC [29]?
A: 12 µM

Q: And the IC50 [30]?
A: 14 µM

Q: And the IC50 [31]?
A: 14 µM

Q: And the MIC [32]?
A: 12 µM

Q: And the MIC [33]?
A: 6 µM

Q: What about the IC50 [34] of the same substance?
A: 20 µM

Q: And the IC50 [35]?
A: 560 µM

Q: What about the killing [36] of the same substance?
A: 38%

Q: What about the “MICGM (geometric mean of the MIC values)” value [37] of the same substance?
A: 6 µM
